Where “and” joins values, the source holds several entries; their conditions need not be identical. Identical values can stand only once.
Experiments:
Experiment in all cases: radiometric filter-binding kinase assay, Kinaseprofiler
WNK3 (human) = WNK3 (human) (UniProt Q9BYP7); details: ATP 200 µM
CAMK2G (human) = CAMK2G (human) (UniProt Q13555); details: ATP 10 µM
GCK (human) = GCK (human) (UniProt Q12851); details: ATP 200 µM
MAPKAPK3 (human) = MAPKAPK3 (human) (UniProt Q16644); details: ATP 90 µM
ULK2 (human) = ULK2 (human) (UniProt Q8IYT8); details: ATP 15 µM
[1] = target: JAK3 JH1 catalytic (human) (UniProt P52333); details: ATP 10 µM
PAK6 (human) = PAK6 (human) (UniProt Q9NQU5); details: ATP 10 µM
SRC (human) = SRC (human) (UniProt P12931); details: ATP 200 µM
MAPK11 (human) = MAPK11 (human) (UniProt Q15759); details: ATP 45 µM
MAP3K5 (human) = MAP3K5 (human) (UniProt Q99683); details: ATP 200 µM
CLK2 (human) = CLK2 (human) (UniProt P49760); details: ATP 15 µM
PRKCB1 (human) = PRKCB1 (human) (UniProt P05771); details: ATP 10 µM
MARK2 (human) = MARK2 (human) (UniProt Q7KZI7); details: ATP 15 µM
EPHA1 (human) = EPHA1 (human) (UniProt P21709); details: ATP 45 µM
MELK (human) = MELK (human) (UniProt Q14680); details: ATP 45 µM
CDK9 CCNT1 (human) = CDK9 CCNT1 (human) (UniProt P50750+O60563); details: ATP 45 µM
DCLK2 (human) = DCLK2 (human) (UniProt Q8N568); details: ATP 90 µM
TYRO3 (human) = TYRO3 (human) (UniProt Q06418); details: ATP 45 µM
PRKG1 (human) = PRKG1 (human) (UniProt Q13976); details: ATP 90 µM
NEK2 (human) = NEK2 (human) (UniProt P51955); details: ATP 120 µM
NEK3 (human) = NEK3 (human) (UniProt P51956); details: ATP 120 µM
BMX (human) = BMX (human) (UniProt P51813); details: ATP 45 µM
MAP2K1 (human) = MAP2K1 (human) (UniProt Q02750); details: ATP 10 µM
ROCK2 (human) = ROCK2 (human) (UniProt O75116); details: ATP 15 µM
TSSK1B (human) = TSSK1B (human) (UniProt Q9BXA7); details: ATP 15 µM
HIPK1 (human) = HIPK1 (human) (UniProt Q86Z02); details: ATP 45 µM
MKNK2 (human) = MKNK2 (human) (UniProt Q9HBH9); details: ATP 120 µM
MAP2K6 (human) = MAP2K6 (human) (UniProt P52564); details: ATP 10 µM
TXK (human) = TXK (human) (UniProt P42681); details: ATP 200 µM
TBK1 (human) = TBK1 (human) (UniProt Q9UHD2); details: ATP 155 µM
CDK2 CCNE1 (human) = CDK2 CCNE1 (human) (UniProt P24941+P24864); details: ATP 120 µM
RPS6KA3 KD1 KD2 (human) = RPS6KA3 KD1 KD2 (human) (UniProt P51812); details: ATP 10 µM
PRKX (human) = PRKX (human) (UniProt P51817); details: ATP 200 µM
PRKX (human), sequence (P51817 whole entry, looked up): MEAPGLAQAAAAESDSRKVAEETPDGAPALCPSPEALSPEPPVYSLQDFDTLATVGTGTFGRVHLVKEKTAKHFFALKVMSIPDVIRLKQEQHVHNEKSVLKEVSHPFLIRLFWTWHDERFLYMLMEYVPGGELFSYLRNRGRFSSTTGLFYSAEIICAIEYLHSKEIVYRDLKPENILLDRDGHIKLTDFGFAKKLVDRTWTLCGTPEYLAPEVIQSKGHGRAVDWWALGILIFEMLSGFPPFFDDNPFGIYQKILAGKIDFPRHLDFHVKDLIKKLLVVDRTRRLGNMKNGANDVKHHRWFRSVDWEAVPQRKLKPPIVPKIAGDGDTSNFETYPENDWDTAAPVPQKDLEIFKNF

PRKG1 (human), sequence (Q13976 whole entry, looked up): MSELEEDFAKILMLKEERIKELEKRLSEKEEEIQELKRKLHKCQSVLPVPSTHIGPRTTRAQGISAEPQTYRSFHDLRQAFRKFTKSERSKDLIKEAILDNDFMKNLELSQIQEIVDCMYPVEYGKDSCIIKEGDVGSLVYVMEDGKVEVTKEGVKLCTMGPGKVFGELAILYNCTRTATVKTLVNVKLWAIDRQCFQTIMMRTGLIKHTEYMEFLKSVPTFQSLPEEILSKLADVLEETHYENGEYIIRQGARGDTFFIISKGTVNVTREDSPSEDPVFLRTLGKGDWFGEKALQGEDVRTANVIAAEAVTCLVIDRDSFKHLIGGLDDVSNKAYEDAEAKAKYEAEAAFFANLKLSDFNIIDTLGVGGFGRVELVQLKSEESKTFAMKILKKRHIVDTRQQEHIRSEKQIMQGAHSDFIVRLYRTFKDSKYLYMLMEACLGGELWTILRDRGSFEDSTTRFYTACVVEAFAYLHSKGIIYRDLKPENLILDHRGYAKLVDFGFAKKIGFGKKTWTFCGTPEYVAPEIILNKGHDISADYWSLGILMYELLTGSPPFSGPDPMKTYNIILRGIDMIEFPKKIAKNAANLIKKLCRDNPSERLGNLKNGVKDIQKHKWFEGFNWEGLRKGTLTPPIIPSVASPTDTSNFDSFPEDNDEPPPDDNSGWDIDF
CLK2 (human), sequence (P49760 whole entry, looked up): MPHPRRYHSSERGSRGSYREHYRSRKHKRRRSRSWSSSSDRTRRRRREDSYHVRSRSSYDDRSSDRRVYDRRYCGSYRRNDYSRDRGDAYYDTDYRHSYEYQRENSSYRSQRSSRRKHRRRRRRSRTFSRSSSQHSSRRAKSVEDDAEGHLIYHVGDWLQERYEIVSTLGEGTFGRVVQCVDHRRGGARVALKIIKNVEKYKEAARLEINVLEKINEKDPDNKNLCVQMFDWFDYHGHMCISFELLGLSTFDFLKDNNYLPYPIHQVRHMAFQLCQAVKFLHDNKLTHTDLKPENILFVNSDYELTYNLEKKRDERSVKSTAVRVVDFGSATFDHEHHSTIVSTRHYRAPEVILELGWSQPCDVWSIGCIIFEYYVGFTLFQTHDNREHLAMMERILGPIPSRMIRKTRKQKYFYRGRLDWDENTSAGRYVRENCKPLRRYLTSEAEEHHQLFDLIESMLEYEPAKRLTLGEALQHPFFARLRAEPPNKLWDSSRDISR
TXK (human), sequence (P42681 whole entry, looked up): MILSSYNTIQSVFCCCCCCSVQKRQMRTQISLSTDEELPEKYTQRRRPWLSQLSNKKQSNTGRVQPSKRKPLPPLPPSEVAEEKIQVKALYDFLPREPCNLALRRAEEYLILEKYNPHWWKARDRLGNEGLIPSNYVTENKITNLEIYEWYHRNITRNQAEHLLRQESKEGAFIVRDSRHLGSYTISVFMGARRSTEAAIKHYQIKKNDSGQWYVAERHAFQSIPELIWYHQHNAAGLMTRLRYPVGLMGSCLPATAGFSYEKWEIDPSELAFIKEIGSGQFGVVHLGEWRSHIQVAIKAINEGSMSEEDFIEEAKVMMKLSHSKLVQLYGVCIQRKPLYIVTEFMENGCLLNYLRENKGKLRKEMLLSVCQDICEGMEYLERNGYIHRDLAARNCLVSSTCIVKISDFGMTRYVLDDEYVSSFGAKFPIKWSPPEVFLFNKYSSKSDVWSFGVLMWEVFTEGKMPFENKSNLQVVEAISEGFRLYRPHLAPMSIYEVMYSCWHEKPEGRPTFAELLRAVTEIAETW
MELK (human), sequence (Q14680 whole entry, looked up): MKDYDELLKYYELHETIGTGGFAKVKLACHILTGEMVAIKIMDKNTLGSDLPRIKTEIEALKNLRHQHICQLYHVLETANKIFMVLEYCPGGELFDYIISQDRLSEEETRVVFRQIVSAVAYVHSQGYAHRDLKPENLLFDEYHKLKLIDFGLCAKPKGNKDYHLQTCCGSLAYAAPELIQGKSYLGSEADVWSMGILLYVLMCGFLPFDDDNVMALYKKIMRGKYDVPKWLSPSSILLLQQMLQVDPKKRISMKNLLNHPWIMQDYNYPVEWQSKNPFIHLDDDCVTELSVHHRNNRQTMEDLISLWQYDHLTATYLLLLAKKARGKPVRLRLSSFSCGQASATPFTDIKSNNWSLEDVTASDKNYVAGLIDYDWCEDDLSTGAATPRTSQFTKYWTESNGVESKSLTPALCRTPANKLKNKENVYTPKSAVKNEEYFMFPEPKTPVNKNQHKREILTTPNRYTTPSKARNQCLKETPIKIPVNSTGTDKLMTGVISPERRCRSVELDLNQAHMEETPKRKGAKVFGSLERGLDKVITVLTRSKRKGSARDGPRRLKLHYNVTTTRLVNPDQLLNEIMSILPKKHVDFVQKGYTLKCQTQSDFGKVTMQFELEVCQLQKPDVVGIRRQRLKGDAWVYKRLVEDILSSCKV
MARK2 (human), sequence (Q7KZI7 whole entry, looked up): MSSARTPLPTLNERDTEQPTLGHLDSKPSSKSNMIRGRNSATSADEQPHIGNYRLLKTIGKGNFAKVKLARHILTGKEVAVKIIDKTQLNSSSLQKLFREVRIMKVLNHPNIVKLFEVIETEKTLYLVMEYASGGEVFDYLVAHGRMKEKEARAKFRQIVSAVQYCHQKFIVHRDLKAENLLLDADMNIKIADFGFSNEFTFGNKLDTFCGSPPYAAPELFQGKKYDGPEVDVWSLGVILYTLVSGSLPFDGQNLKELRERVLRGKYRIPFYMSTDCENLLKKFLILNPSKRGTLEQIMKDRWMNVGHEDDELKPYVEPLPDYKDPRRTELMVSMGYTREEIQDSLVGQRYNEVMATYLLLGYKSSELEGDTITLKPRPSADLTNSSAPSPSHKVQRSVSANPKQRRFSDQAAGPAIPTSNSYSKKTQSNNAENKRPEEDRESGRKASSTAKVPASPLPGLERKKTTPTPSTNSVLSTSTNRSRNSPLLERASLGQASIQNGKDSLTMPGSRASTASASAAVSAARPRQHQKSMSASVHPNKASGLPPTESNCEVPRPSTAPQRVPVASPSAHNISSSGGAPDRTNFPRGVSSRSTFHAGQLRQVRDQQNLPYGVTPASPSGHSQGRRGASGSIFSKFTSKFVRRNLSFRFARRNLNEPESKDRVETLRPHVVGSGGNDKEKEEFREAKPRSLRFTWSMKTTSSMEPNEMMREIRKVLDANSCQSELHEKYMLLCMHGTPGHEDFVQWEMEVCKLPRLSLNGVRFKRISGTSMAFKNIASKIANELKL
MAPKAPK3 (human), sequence (Q16644 whole entry, looked up): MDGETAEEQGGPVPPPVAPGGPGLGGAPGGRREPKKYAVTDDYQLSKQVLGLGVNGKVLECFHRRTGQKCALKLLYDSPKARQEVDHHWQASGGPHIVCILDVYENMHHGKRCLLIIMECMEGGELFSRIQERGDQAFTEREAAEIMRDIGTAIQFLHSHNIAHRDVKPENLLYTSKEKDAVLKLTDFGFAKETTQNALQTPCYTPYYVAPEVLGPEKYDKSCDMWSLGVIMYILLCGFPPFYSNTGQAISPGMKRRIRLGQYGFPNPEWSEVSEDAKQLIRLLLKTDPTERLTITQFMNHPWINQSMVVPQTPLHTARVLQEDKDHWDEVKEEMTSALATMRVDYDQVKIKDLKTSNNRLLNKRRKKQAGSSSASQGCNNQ
MAPK11 (human), sequence (Q15759 whole entry, looked up): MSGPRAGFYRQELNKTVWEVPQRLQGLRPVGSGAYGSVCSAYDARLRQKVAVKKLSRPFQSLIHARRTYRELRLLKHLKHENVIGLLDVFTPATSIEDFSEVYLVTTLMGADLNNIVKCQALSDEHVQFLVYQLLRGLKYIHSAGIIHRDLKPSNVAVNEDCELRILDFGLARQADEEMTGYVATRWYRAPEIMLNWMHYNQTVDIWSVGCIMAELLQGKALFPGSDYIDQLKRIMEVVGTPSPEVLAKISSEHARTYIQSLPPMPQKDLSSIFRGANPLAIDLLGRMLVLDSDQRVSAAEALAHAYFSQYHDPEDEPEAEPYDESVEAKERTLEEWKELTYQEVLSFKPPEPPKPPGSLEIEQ
PRKCB1 (human), sequence (P05771 whole entry, looked up): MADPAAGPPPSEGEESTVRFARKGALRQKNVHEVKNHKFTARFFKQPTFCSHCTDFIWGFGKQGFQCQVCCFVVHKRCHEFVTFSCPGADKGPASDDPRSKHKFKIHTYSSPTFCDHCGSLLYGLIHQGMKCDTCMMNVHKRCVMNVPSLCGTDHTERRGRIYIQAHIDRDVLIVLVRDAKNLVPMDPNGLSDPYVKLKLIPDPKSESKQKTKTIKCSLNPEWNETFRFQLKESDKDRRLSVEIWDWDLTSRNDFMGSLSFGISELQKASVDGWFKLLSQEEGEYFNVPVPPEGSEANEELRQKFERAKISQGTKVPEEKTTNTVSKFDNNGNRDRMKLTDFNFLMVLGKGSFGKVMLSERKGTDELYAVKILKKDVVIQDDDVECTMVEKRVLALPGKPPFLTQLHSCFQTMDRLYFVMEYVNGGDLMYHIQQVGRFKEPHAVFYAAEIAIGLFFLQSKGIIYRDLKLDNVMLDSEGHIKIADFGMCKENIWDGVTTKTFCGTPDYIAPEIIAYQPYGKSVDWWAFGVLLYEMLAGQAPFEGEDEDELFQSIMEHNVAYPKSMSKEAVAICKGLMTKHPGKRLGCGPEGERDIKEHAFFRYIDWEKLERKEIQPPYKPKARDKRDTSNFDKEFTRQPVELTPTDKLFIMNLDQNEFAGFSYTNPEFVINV

A residual activity (WNK3 (human); compound 1.0 µM) of 87%, a residual activity (WNK3 (human); compound 10.0 µM) of 77% and a residual activity (CAMK2G (human); compound 1.0 µM) of 37% were found for `O=C1c2ccccc2-c2n[nH]c3cccc1c23` in this work. For the same compound, the residual activity (CAMK2G (human); compound 10.0 µM) was 8%, the residual activity (GCK (human); compound 1.0 µM) was 16% and the residual activity (GCK (human); compound 10.0 µM) was 2%. For the same compound, the residual activity (MAPKAPK3 (human); compound 1.0 µM) was 100%, the residual activity (MAPKAPK3 (human); compound 10.0 µM) was 103% and the residual activity (ULK2 (human); compound 1.0 µM) was 90%. It also gave a residual activity (ULK2 (human); compound 10.0 µM) of 45%, a residual activity ([1]; compound 1.0 µM) of 57% and a residual activity ([1]; compound 10.0 µM) of 9%. The residual activity (PAK6 (human); compound 1.0 µM) was 91%, the residual activity (PAK6 (human); compound 10.0 µM) was 49% and the residual activity (SRC (human); compound 1.0 µM) was 89%. For the same compound, the residual activity (SRC (human); compound 10.0 µM) was 64%, the residual activity (MAPK11 (human); compound 1.0 µM) was 88% and the residual activity (MAPK11 (human); compound 10.0 µM) was 79%. For the same compound, the residual activity (MAP3K5 (human); compound 1.0 µM) was 36%, the residual activity (MAP3K5 (human); compound 10.0 µM) was 5% and the residual activity (CLK2 (human); compound 1.0 µM) was 36%. It also gave a residual activity (CLK2 (human); compound 10.0 µM) of 21%, a residual activity (PRKCB1 (human); compound 1.0 µM) of 102% and a residual activity (PRKCB1 (human); compound 10.0 µM) of 104%. For the same compound, the residual activity (MARK2 (human); compound 1.0 µM) was 55%, the residual activity (MARK2 (human); compound 10.0 µM) was 12% and the residual activity (EPHA1 (human); compound 1.0 µM) was 67%. It also gave a residual activity (EPHA1 (human); compound 10.0 µM) of 42%, a residual activity (MELK (human); compound 1.0 µM) of 13% and a residual activity (MELK (human); compound 10.0 µM) of 0%. It also gave a residual activity (CDK9 CCNT1 (human); compound 1.0 µM) of 96%, a residual activity (CDK9 CCNT1 (human); compound 10.0 µM) of 55% and a residual activity (DCLK2 (human); compound 1.0 µM) of 116%. The residual activity (DCLK2 (human); compound 10.0 µM) was 51%, the residual activity (TYRO3 (human); compound 1.0 µM) was 97% and the residual activity (TYRO3 (human); compound 10.0 µM) was 81%. The residual activity (PRKG1 (human); compound 1.0 µM) was 90% and 79%, the residual activity (PRKG1 (human); compound 10.0 µM) was 60% and 79% and the residual activity (NEK2 (human); compound 1.0 µM) was 86%. It also gave a residual activity (NEK2 (human); compound 10.0 µM) of 81%, a residual activity (NEK3 (human); compound 1.0 µM) of 70% and a residual activity (NEK3 (human); compound 10.0 µM) of 79%. The residual activity (BMX (human); compound 1.0 µM) was 59%, the residual activity (BMX (human); compound 10.0 µM) was 18% and the residual activity (MAP2K1 (human); compound 1.0 µM) was 75%. It also gave a residual activity (MAP2K1 (human); compound 10.0 µM) of 50%, a residual activity (ROCK2 (human); compound 1.0 µM) of 74% and a residual activity (ROCK2 (human); compound 10.0 µM) of 39%. The residual activity (TSSK1B (human); compound 1.0 µM) was 75%, the residual activity (TSSK1B (human); compound 10.0 µM) was 49% and the residual activity (HIPK1 (human); compound 1.0 µM) was 93%. The residual activity (HIPK1 (human); compound 10.0 µM) was 62%, the residual activity (MKNK2 (human); compound 1.0 µM) was 43% and the residual activity (MKNK2 (human); compound 10.0 µM) was 10%. It also gave a residual activity (MAP2K6 (human); compound 1.0 µM) of 82%, a residual activity (MAP2K6 (human); compound 10.0 µM) of 13% and a residual activity (TXK (human); compound 1.0 µM) of 58%. For the same compound, the residual activity (TXK (human); compound 10.0 µM) was 23%, the residual activity (TBK1 (human); compound 1.0 µM) was 35% and the residual activity (TBK1 (human); compound 10.0 µM) was 11%. For the same compound, the residual activity (CDK2 CCNE1 (human); compound 1.0 µM) was 8%, the residual activity (CDK2 CCNE1 (human); compound 10.0 µM) was 3% and the residual activity (RPS6KA3 KD1 KD2 (human); compound 1.0 µM) was 54%. The residual activity (RPS6KA3 KD1 KD2 (human); compound 10.0 µM) was 32%, the residual activity (PRKX (human); compound 1.0 µM) was 86% and the residual activity (PRKX (human); compound 10.0 µM) was 70%.

— the kinase profiling compilation of Christmann-Franck et al. (2016)
